Key:
CX3CR1 [1] = molecular target: T1, CX3CR1 (Homo sapiens (Human), UniProt P49238); experiment: Flow adhesion for human B-lymphocyte cell line RPMI-8226; format: cell-based; conditions: RPMI-8226 cells under flow, recombinant full-length CX3CL1
Description: (§1) Adhesion of cells to recombinant full-length human CX3CL1 was monitored under physiological flow using a Cellix VenaFlux microfluidics platform with connected fluorescent microscope and camera, and using Vena8 Fluoro+ Biochips (Cellix) pre-coated with anti-His monoclonal antibody (25 μg/mL; R&D Systems) and His-tagged full-length CX3CL1 (15 μg/mL; R&D Systems).
Flow Adhesion for Human B-Lymphocyte Cell Line RPMI-8226
Cells were cultured in RPMI 1640 medium with GlutaMAX and 20% FBS (HyClone, Perbio). Before each experiment, cells were centrifuged at 320 g and resuspended to 5×10^6 cells per ml in RPMI 1640 with 1% FBS. Cells were pre-incubated for 15 minutes at room temperature with CX3CR1 antagonist in an 8-step 3-fold dilution series starting at 3.3 μM. DMSO concentration was kept constant for all antagonist concentrations at 0.1%. Cells were pumped through the channels of the Vena8 Fluoro+ biochip at 0.5 dynes per cm2 for 3 m prior to capturing microscope images for quantification. Cells adhering to channels were counted and the mean values across five images in each channel were used for calculating the concentration-response curves.

CX3CR1 [2] = molecular target: T1, CX3CR1; experiment: hCX3CR1 [3H]-AZD8797 competitive binding assay (filter); conditions: CHO-hCX3CR1 membranes, 2 nM [3H]-AZD8797
How it was run: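 Filtration radioligand displacement assay: competitor titrations compete with 2 nM [3H]-AZD8797 for membranes from CHO cells expressing hCX3CR1 (9 μg/well). Incubation was 2 h at room temperature in HEPES pH 7.4 with MgCl2, CaCl2, 0.5% BSA and 1% DMSO. Filters were washed with ice-cold high-salt (500 mM NaCl) buffer, and retained radioactivity was scintillation-counted.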

CX3CR1 [3] = molecular target: T1, CX3CR1; experiment: hCX3CR1 [125I]-CX3CL1 displacement binding (SPA); conditions: CHO-hCX3CR1 membranes, [125I]-CX3CL1, SPA beads
Description: hCX3CR1 [^125I]-CX3CL1 Displacement Binding (SPA)
CHO-hCX3CR1 membranes (3 μg per well) together with […] [^125I]-CX3CL1 (Perkin Elmer) and different concentrations of competitor compound were incubated together with 400 μg/well WGA coated PVT SPA beads (Perkin Elmer) in 50 mM HEPES (pH 7.4), 10 mM MgCl2, 1 mM EDTA and 0.1% Gelatin in a Greiner polystyrene flat-bottom 384-well plate. The plate was incubated for 20 h at room temperature before the radioactivity was measured using a MicroBeta Trilux reader (PerkinElmer). The DMSO concentration was held constant at 1%.

CX3CR1 [4] = molecular target: T1, CX3CR1; experiment: CX3CR1-dependent cell adhesion to recombinant CX3CL1 in human whole blood under flow; format: cell-based; conditions: recombinant full-length CX3CL1
Description: as §1
CX3CR1-Dependent Cell Adhesion to Recombinant CX3CL1 in Human Whole Blood Under Flow
Human whole blood from healthy volunteers was collected using heparin as anti-coagulant. […] Compound stocks or DMSO vehicle were added to 0.5 or 1.0 ml aliquots of blood such that the final concentration of DMSO was 0.1%, corresponding to a 1000-fold dilution of compound stock. Blood was pre-incubated with compound at room temperature for 60 minutes with gentle shaking. DiOC6 (Invitrogen, 5 μM) or Hoechst 33342 (Invitrogen, 300 μM) dye was subsequently added to fluorescently label cells and enable their detection during the flow adhesion assay. To monitor adhesion, blood was allowed to flow through the channels of a Vena8 Fluoro+ biochip at 2.25 dynes per cm^2 for 3-6 minutes prior to capturing images for quantification. Fluorescent cells adhering to the channels were counted and the mean and/or total count across five to six images in each channel were used for calculating concentration-response curves.

T1 sequence (P49238 whole entry): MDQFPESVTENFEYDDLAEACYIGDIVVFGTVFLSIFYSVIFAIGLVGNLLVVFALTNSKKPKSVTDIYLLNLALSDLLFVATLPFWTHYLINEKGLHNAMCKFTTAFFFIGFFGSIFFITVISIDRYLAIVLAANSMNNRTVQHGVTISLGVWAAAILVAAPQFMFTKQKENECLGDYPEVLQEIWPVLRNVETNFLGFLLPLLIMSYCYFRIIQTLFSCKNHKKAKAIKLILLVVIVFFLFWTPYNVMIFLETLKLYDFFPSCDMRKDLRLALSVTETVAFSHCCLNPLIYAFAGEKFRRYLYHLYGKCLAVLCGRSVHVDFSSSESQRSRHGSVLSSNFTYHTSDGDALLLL

| SMILES | IC50 (CX3CR1 [1]) [nM] | IC50 (CX3CR1 [2]) [nM] | IC50 (CX3CR1 [3]) [nM] | IC50 (CX3CR1 [4]) [nM] |
| --- | --- | --- | --- | --- |
| CC(C)C[C@H](CO)Nc1nc(C[C@@H](C)c2ccc(F)cc2)nc(NS(C)(=O)=O)n1 (single isomer, unassigned) [Example 79, N-(4-((R*)-2-(4-Fluorophenyl)propyl)-6-(((R)-1-hydroxy-4-methylpentan-2-yl)amino)-1,3,5-triazin-2-yl)methanesulfonamide] | 54 | 198 | 2470 | – |
| CC(C)C[C@H](CO)Nc1nc(C[C@H](C)c2ccc(Cl)cn2)nc(NS(C)(=O)=O)n1 (single isomer, unassigned) [Example 149, N-(4-((S*)-2-(5-Chloropyridin-2-yl)propyl)-6-(((R)-1-hydroxy-4-methylpentan-2-yl)amino)-1,3,5-triazin-2-yl)methanesulfonamide] | – | – | > 30000 | > 30000 |
| COc1ccc([C@H](C)Cc2nc(N[C@@H](CO)CC(C)C)nc(NS(C)(=O)=O)n2)cn1 (single isomer, unassigned) [Example 76, N-(4-(((R)-1-Hydroxy-4-methylpentan-2-yl)amino)-6-((R*)-2-(6-methoxypyridin-3-yl)propyl)-1,3,5-triazin-2-yl)methanesulfonamide] | 158 | 48 | 886 | – |
| CC(C)C[C@H](CO)Nc1nc(C[C@@H](C)c2ccc(F)cc2F)nc(NS(C)(=O)=O)n1 (single isomer, unassigned) [Example 6, N-(4-((R*)-2-(2,4-Difluorophenyl)propyl)-6-(((R)-1-hydroxy-4-methylpentan-2-yl)amino)-1,3,5-triazin-2-yl)methanesulfonamide] | – | 96 | 948 | 109 |
| CC(C)C[C@H](CO)Nc1nc(C[C@@H](C)c2cnc(C3CC3)nc2)nc(NS(C)(=O)=O)n1 (single isomer, unassigned) [Example 12, N-(4-((R*)-2-(2-Cyclopropylpyrimidin-5-yl)propyl)-6-(((R)-1-hydroxy-4-methylpentan-2-yl)amino)-1,3,5-triazin-2-yl)methanesulfonamide] | 255 | 176 | 1860 | – |
| CC(C)C[C@H](CO)Nc1nc(C[C@@H](C)c2ccc(Cl)cn2)nc(NS(C)(=O)=O)n1 (single isomer, unassigned) [Example 150, N-(4-((R*)-2-(5-Chloropyridin-2-yl)propyl)-6-(((R)-1-hydroxy-4-methylpentan-2-yl)amino)-1,3,5-triazin-2-yl)methanesulfonamide] | – | 185 | 1530 | 1600 |
| CC(C)C[C@H](CO)Nc1nc(C[C@@H](C)c2ccc(F)c(F)c2F)nc(NS(C)(=O)=O)n1 (single isomer, unassigned) [Example 88, N-(4-(((R)-1-Hydroxy-4-methylpentan-2-yl)amino)-6-((R*)-2-(2,3,4-trifluorophenyl)propyl)-1,3,5-triazin-2-yl)methanesulfonamide] | – | 32 | – | 115 |
| CC(C)C[C@H](CO)Nc1nc(C[C@H](C)c2ccc(Cl)cc2F)nc(NS(C)(=O)=O)n1 (single isomer, unassigned) [Example 83, N-(4-((S*)-2-(4-Chloro-2-fluorophenyl)propyl)-6-(((R)-1-hydroxy-4-methylpentan-2-yl)amino)-1,3,5-triazin-2-yl)methanesulfonamide] | – | 156 | 424 | 1290 |
| CC(C)C[C@H](CO)Nc1nc(C[C@@H](C)c2cccc(Cl)c2F)nc(NS(C)(=O)=O)n1 (single isomer, unassigned) [Example 4, N-(4-((R*)-2-(3-Chloro-2-fluorophenyl)propyl)-6-(((R)-1-hydroxy-4-methylpentan-2-yl)amino)-1,3,5-triazin-2-yl)methanesulfonamide] | – | 17 | 68 | 499 |

Source: patent publication US20240199558A1, “2,4,6-TRISUBSTITUTED 1,3,5-TRIAZINES AS MODULATORS OF CX3CR1” (ASTRAZENECA AB, priority 2022, published 2024)
